From patent publication US20230226230A1, “THIOPURINE-BASED COMPOUND, COMPOSITION, METHOD OF PREPARATION AND APPLICATIONS” (SEECURE TAIWAN CO., LTD., priority 2021, published 2023) come the findings set out here.

Data set [1] relates to various human lymphoma cells (mantle cell lines). As to the kind of experiment: In vitro MTT cytotoxicity assay, human lymphoma cells. Type of data set: cell-based. The source says:
(§1) Effect of Compound SC-06-K analogues were selected to test their feasibility against representative mantle cell lines and diffuse large B-cell lymphoma (DLBCL) cell lines using cell viability assays.
For orientation: Tetrazolium dyes change colour on reduction, which living cells bring about.

Data set [2] relates to human diffuse large B-cell lymphoma cells. The experiment in a line: In vitro MTT cytotoxicity assay, DLBCL cells. Type of data set: cell-based. The note with it: various human diffuse large B-cell lymphoma cells.
From the text: as §1

In data set [3] the test system is MDA-MB-231 tumors. The experiment in a line: Imaging of nude mice bearing breast tumors, MDA-MB-231 tumor. The note with it: MDA-MB-231, at 0.5 hrs.
The subject of data set [4] is MCF-7 tumors. The experiment in a line: Imaging of nude mice bearing breast tumors, MCF-7 tumor. The note with it: MCF-7, at 0.5 hrs.

“Also recorded” adds a separate entry of the source.

With `Cn1cnc([N+](=O)[O-])c1Sc1ncnc2c1ncn2CC(O)CN1CCNCCNCCNCC1` (stereo not shown) [SC-06-K-1, Cyclen-Hydroxypropyl-Azathioprine Conjugate], the figures for the MTT cytotoxicity entry in data set [1] and in data set [2] were “inhibited cancer cells in dose-dependent manners; also recorded: inhibited cancer cells in a dose-dependent manner” and “inhibited various human diffuse large B-cell lymphoma cells in a dose-dependent manner; also recorded: inhibited cancer cells in a dose-dependent manner”, respectively.
As for `OC[C@H]1OC(O)[C@H]([18F])[C@@H](O)[C@@H]1O` (stereo partly shown) [^18F-FDG, 2′-fluorodeoxyglucose], the “Tumor/muscle count density ratios” value in data set [3] is reported as 0.25; in data set [4], 0.28.
